Tests used:
HSV-1 = experiment: Antiviral activity, HSV-1 in Vero cells, plaque method; format: cell-based; conditions: Human alphaherpesvirus 1, 20 hours, 90% inhibition of plaque formation
Method in brief: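 HSV-1 (50,000 pfu in 2% FBS-DMEM) was added to Vero cells and removed, then the compound was applied in 2% FBS-DMEM for 20 h at 37° C, 5% CO2. After a freeze-thaw, virus yield in the medium was titred by plaque assay. EC90 is the concentration giving 90% plaque reduction versus the compound-free control.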

Human plasma stability = format: in vitro ADME
Description: An Assay Method for Human Plasma Stability Human plasma was thawed, 200 μl each thereof was placed in each cell of a 96-well plate immediately thereafter, and 4 μl of solution of each test compound in 1 mM DMF was added thereto. A microplate reader for fluorescence absorption was used to assay changes in fluorescence, and half life was determined based on the changes.

HSV-1 protease = target: T1, HSV-1 protease (Human herpesvirus 1, UniProt P10210); experiment: Enzymatic assay for HSV-1 protease (assembly) inhibitor, fluorescence polarization; format: biochemical; conditions: read-out: HSV-1 Enzyme inhibition IC50
T1 construct: 6xHis (N); made in house; host or cells: baculovirus expression system
T1 sequence (P10210 1-247): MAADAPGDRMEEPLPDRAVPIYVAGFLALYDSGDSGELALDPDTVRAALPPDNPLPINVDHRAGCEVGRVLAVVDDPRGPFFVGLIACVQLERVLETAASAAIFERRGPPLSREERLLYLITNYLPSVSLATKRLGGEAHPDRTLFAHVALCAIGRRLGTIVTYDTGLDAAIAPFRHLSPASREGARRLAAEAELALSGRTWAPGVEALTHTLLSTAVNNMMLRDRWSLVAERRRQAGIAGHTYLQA
Method in brief: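 His6-tagged HSV-1 UL26 protease, baculovirus-expressed, preincubated 30 min at RT with compound in 1 M citrate/phosphate buffer pH 7.4 with 20% glycerol and 2 mM TCEP. A biotin-HTYLQA*SERFRIK-DTAF substrate was then cleaved for 60 min at RT, stopped with avidin, and read by fluorescence polarization versus no-inhibitor control.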

Vero cells = experiment: Cytotoxicity, Vero cells, Alamar Blue; format: cell-based; conditions: 25 μM, 20 hours
Method in brief: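 Overnight-seeded Vero cells were exposed to 25 μM compound in 2% FBS-DMEM for 20 h at 37 °C, 5% CO2. Alamar Blue was then added for about 6 h. The absorbance ratio relative to compound-free control gave the living-cell ratio.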

Cc1c(NC(=O)OC(C)(C)C)ccc2nc(NC(C)(C)C(=O)N(C)CCc3cccnc3)oc(=O)c12 [Compound No.19, (5-Methyl-2-{1-methyl-1-[methyl-(2-pyridin-3-yl-ethyl)-carbamoyl]-ethylamino}-4-oxo-4H-benzo[d][1,3]oxazin-6-yl)-carbamic Acid Tert-Butyl Ester]
EC90 (HSV-1): 6.2 µM
half-life at 19.6 μM (Human plasma stability): 6.2 h
IC50 (HSV-1 protease): 0.3 µM
Cell viability (% of control) (Vero cells): 106.0%

Cc1c(NC(=O)OC(C)(C)C)ccc2nc(N[C@@H](Cc3ccccc3)C(=O)NCc3ccccn3)oc(=O)c12 [Compound No.20, (5-Methyl-4-oxo-{2-2-phenyl-1S-[(pyridin-2-ylmethyl)-carbamoyl]-ethylamino}-4H-benzo[d][1,3]oxazin-6-yl)-carbamic Acid Tert-Butyl Ester]
EC90 (HSV-1): 5.9 µM
half-life at 19.6 μM (Human plasma stability): 1.47 h
IC50 (HSV-1 protease): 0.5 µM
Cell viability (% of control) (Vero cells): 101.0%

Cc1c(NC(=O)OC(C)(C)C)ccc2nc(NC3(C(=O)N(C)Cc4cccnc4)CCCCC3)oc(=O)c12 [Compound No.120, {5-Methyl-2-[1-(methyl-pyridin-3-ylmethyl-carbamoyl)-cyclohexylamino]-4-oxo-4H-benzo[d][1,3]oxazin-6-yl}-carbamic acid tert-butyl ester]
EC90 (HSV-1): 10 µM
half-life at 19.6 μM (Human plasma stability): 14.9 h
IC50 (HSV-1 protease): 1.2 µM

Cc1c(NC(=O)c2ccc3c(c2)OCO3)ccc2nc(NC(C)(C)C(=O)N(C)CCc3ccccn3)oc(=O)c12 [Compound No.193, Benzo[1,3]dioxol-5-carboxylic acid (5-methyl-2-{1-methyl-1-[methyl-(2-pyridin-2-yl-ethyl)-carbamoyl]-ethylamino}-4-oxo-4H-benzo[d][1,3]oxazin-6-yl)-amide]
EC90 (HSV-1): ≥ 12.5 µM
IC50 (HSV-1 protease): 3.7 µM
Cell viability (% of control) (Vero cells): 67.0%

Cc1c(NC(=O)c2ccc3ccccc3c2)ccc2nc(NC(C)(C)C(=O)N(C)CCc3ccccn3)oc(=O)c12 [Compound No.194, Naphthalene-2-carboxylic acid (5-methyl-2-{1-methyl-1-[methyl-(2-pyridin-2-yl-ethyl)-carbamoyl]-ethylamino}-4-oxo-4H-benzo[d][1,3]oxazin-6-yl)-amide]
EC90 (HSV-1): 11.8 µM
IC50 (HSV-1 protease): 6.7 µM
Cell viability (% of control) (Vero cells): 71.8%

Cc1c(NC(=O)C(C)C)ccc2nc(NC(C)(C)C(=O)N(C)CCc3ccccn3)oc(=O)c12 [Compound No.195, 2-(6-Isobutyrylamino-5-methyl-4-oxo-4H-benzo[d][1,3]oxazin-2-ylamino)-2,N-dimethyl-N-(2-pyridin-2-yl-ethyl)-propionamide]
EC90 (HSV-1): ≥ 12.5 µM
IC50 (HSV-1 protease): 2.1 µM
Cell viability (% of control) (Vero cells): 99.7%

CCCCCCCC(=O)Nc1ccc2nc(NC(C)(C)C(=O)N(C)CCc3ccccn3)oc(=O)c2c1C [Compound No.196, Octanoic acid (5-methyl-2-{1-methyl-1-[methyl-(2-pyridin-2-yl-ethyl)-carbamoyl]-ethylamino}-4-oxo-4H-benzo[d][1,3]oxazin-6-yl)-amide]
EC90 (HSV-1): 11.5 µM
IC50 (HSV-1 protease): 0.8 µM
Cell viability (% of control) (Vero cells): 86.5%

Cc1c(NC(=O)C2CCC2)ccc2nc(NC(C)(C)C(=O)N(C)CCc3ccccn3)oc(=O)c12 [Compound No.198, Cyclobutanecarboxylic acid (5-methyl-2-{1-methyl-1-[methyl-(2-pyridin-2-yl-ethyl)-carbamoyl]-ethylamino}-4-oxo-4H-benzo[d][1,3]oxazin-6-yl)-amide]
EC90 (HSV-1): ≥ 12.5 µM
IC50 (HSV-1 protease): 3.6 µM
Cell viability (% of control) (Vero cells): 99.2%

Cc1c(NC(=O)c2cccc(Br)c2)ccc2nc(NC(C)(C)C(=O)N(C)CCc3ccccn3)oc(=O)c12 [Compound No.200, 3-Bromo-N-(5-methyl-2-{1-methyl-1-[methyl-(2-pyridin-2-yl-ethyl)-carbamoyl]-ethylamino}-4-oxo-4H-benzo[d][1,3]oxazin-6-yl)-benzamide]
EC90 (HSV-1): 3.2 µM
IC50 (HSV-1 protease): 1.6 µM
Cell viability (% of control) (Vero cells): 21.5%

Cc1c(NC(=O)CCCNC(=O)c2ccccn2)ccc2nc(NC(C)(C)C(=O)N(C)CCc3ccccn3)oc(=O)c12 [Compound No.221, Pyridine-2-carboxylic acid [3-(5-methyl-2-{1-methyl-1-[methyl-(2-pyridin-2-yl-ethyl)-carbamoyl]-ethylamino}-4-oxo-4H-benzo[d][1,3]oxazin-6-ylcarbamoyl)-propyl]-amide]
EC90 (HSV-1): > 12.5 µM
IC50 (HSV-1 protease): 0.7 µM
Cell viability (% of control) (Vero cells): 105.3%

Cc1c(NC(=O)CCCNC(=O)c2ccc(N(C)C)cc2)ccc2nc(NC(C)(C)C(=O)N(C)CCc3ccccn3)oc(=O)c12 [Compound No.224, 4-Dimethylamino-N-[3-(5-methyl-2-{1-methyl-1-[methyl-(2-pyridin-2-yl-ethyl)-carbamoyl]-ethylamino}-4-oxo-4H-benzo[d][1,3]oxazin-6-ylcarbamoyl)-propyl]-benzamide]
EC90 (HSV-1): > 12.5 µM
IC50 (HSV-1 protease): 0.4 µM
Cell viability (% of control) (Vero cells): 107.5%

Cc1c(NC(=O)c2ccccc2Cl)ccc2nc(NC(C)(C)C(=O)N(C)CCc3ccccn3)oc(=O)c12 [compound 151, 2-Chloro-N-(5-methyl-2-{1-methyl-1-[methyl-(2-pyridin-2-yl-ethyl)-carbamoyl]-ethylamino}-4-oxo-4H-benzo[d][1,3]oxazin-6-yl)-benzamide]
EC90 (HSV-1): 7.6 µM
IC50 (HSV-1 protease): 1.4 µM
Cell viability (% of control) (Vero cells): 74.2%

Cc1cccc(C(=O)Nc2ccc3nc(NC(C)(C)C(=O)N(C)CCc4ccccn4)oc(=O)c3c2C)c1 [compound 157, 3-Methyl-N-(5-methyl-2-{1-methyl-1-[methyl-(2-pyridin-2-yl-ethyl)-carbamoyl]-ethylamino}-4-oxo-4H-benzo[d][1,3]oxazin-6-yl)-benzamide]
EC90 (HSV-1): 6.2 µM
IC50 (HSV-1 protease): 3.3 µM
Cell viability (% of control) (Vero cells): 70.5%

COc1cc(OC)cc(C(=O)Nc2ccc3nc(NC(C)(C)C(=O)N(C)CCc4ccccn4)oc(=O)c3c2C)c1 [compound 191, 3,5-Dimethoxy-N-(5-methyl-2-{1-methyl-1-[methyl-(2-pyridin-2-yl-ethyl)-carbamoyl]-ethylamino}-4-oxo-4H-benzo[d][1,3]oxazin-6-yl)-benzamide]
EC90 (HSV-1): > 12.5 µM
IC50 (HSV-1 protease): 0.6 µM
Cell viability (% of control) (Vero cells): 89.1%

Cc1c(NC(=O)c2ccccc2Br)ccc2nc(NC(C)(C)C(=O)N(C)CCc3ccccn3)oc(=O)c12 [compound 199, 2-Bromo-N-(5-methyl-2-{1-methyl-1-[methyl-(2-pyridin-2-yl-ethyl)-carbamoyl]-ethylamino}-4-oxo-4H-benzo[d][1,3]oxazin-6-yl)-benzamide]
EC90 (HSV-1): 4.1 µM
IC50 (HSV-1 protease): 3 µM
Cell viability (% of control) (Vero cells): 56.9%

COc1ccc(CC(Nc2nc3ccc(NC(=O)OC(C)(C)C)c(C)c3c(=O)o2)C(=O)NCc2ccccn2)cc1 (centres unmarked) [compound 230, (2-{2-(4-Methoxy-phenyl)-1-[(pyridin-2-ylmethyl)-carbamoyl]-ethylamino}-5-methyl-4-oxo-4H-benzo[d][1,3]oxazin-6-yl)-carbamic acid tert-butyl ester, reference compound]
EC90 (HSV-1): 6.1 µM
half-life at 19.6 μM (Human plasma stability): 0.45 h
IC50 (HSV-1 protease): 0.4 µM
